From patent publication US10953100B2, “Compounds and therapeutic uses thereof” (priority 2015, dated 2021)

Target: Anti-alpha galactosyl IgG antibody
Assay: ELISA assay: streptavidin-captured biotin compound, binding of anti-alpha galactosyl IgG antibody
Parameters: species or system human
Conditions: geometric mean with standard error in brackets; streptavidin plate, anti-alpha galactosyl IgG 0.5 μg/mL; read-out: Concentration at half maximal binding
Method: Compounds containing F (representing a carbohydrate molecule capable of binding to a human anti-alpha-galactosyl antibody) and L (as biotin) were assayed for binding at both ends of the compound using an enzyme-linked immunosorbent assay (ELISA). Streptavidin-coated plates captured biotin to the surface of the plate and the binding of anti-alpha galactosyl antibodies to the alpha-galactosyl moiety was reported by a secondary antibody labelled with HRP (Horse Radish Peroxidase).
Compounds were titrated 1.5 fold from a top dose of 50 nM in phosphate buffered saline (PBS) (Sigma D8537)+0.025% DMSO (Dimethyl Sulphoxide, Sigma D8418). Streptavidin immobilizer 96-well plates (nunc 436014) were coated with 100 μL of compound at room temperature for 2 hours shaking at 500 rpm. Plates were washed with 2×200 μL PBS-T (PBS with 0.05% Tween 20 (Sigma P9416)) and 1×200 μL PBS-T with a 5 minute incubation shaking at room temperature, prior to being blocked for 1 hour at room temperature with 1% Bovine Serum Albumin (BSA, Sigma A2153) in PBS-T. After removing the blocking buffer, 50 μL of Anti-alpha galactosyl IgG antibody (Anti-alpha-galactosyl antibody was purified from human IVIG (Gammagard) by affinity purification using an alpha-galactosyl-HSA (Human Serum Albumin) sepharose column by Rockland Immunochemicals Inc.) at 0.5 μg/mL in PBS-T+1% BSA and incubated shaking at room temperature for 1 hour.
Plates were washed 2×200 μL PBS-T and 3×200 μL PBS-T with a 5 minute incubation, shaking at room temperature before the addition of 50 μL 1:5000 Goat Anti-Human IgG-HRP (horseradish peroxidase) conjugate (Abcam ab97175). The plates were incubated shaking at room temperature for 1 hour before a final wash of 2×200 μL PBS-T and 3×200 μl PBS-T with a 5 minute incubation shaking at room temperature. 100 μL TMB buffer (3,3′,5,5′-tetramethylbenzidine, a chromogenic substrate for horseradish peroxidase) (Pierce 34021) was added to the plate and allowed to develop for 5-10 minutes before the samples were quenched with 50 μL 2M sulfuric acid (Sigma 258105). The absorbance was read at 450 nm on an Envision plate reader (Perkin Elmer). Results from wells (duplicate) were averaged and the 50% binding affinity calculated.
The concentration at which half-maximal binding is achieved is reported as a geometric mean with standard error in brackets. The number of independent experiments is also reported. In order to achieve a signal both ends of the molecule are required to bind (biotin to streptavidin and alpha-galactosyl to anti-alpha galactosyl antibodies) simultaneously.

Row | Structure (SMILES) | EC50
1 | CC(=O)N[C@H]1[C@H](OCCCNC(=O)COc2ccc(-c3cc(OCC(=O)NCCCO[C@@H]4O[C@H](CO)[C@@H](O[C@@H]5O[C@H](CO)[C@H](O)[C@H](O[C@H]6O[C@H](CO)[C@H](O)[C@H](O)[C@H]6O)[C@H]5O)[C@H](O)[C@H]4NC(C)=O)cc(C(=O)NCCNC(=O)CCCC[C@@H]4SC[C@@H]5NC(=O)N[C@@H]54)c3)cc2)O[C@H](CO)[C@@H](O[C@@H]2O[C@H](CO)[C@H](O)[C@H](O[C@H]3O[C@H](CO)[C@H](O)[C@H](O)[C@H]3O)[C@H]2O)[C@@H]1O [Example 7] | 0.016 µM
2 | CC(=O)NC1C(OCCCNC(=O)COc2cc(OCC(=O)NCCCOC3OC(CO)C(OC4OC(CO)C(O)C(OC5OC(CO)C(O)C(O)C5O)C4O)C(O)C3NC(C)=O)cc(-c3cc(OCC(=O)NCCCOC4OC(CO)C(OC5OC(CO)C(O)C(OC6OC(CO)C(O)C(O)C6O)C5O)C(O)C4NC(C)=O)cc(C(=O)NCCNC(=O)CCOCCOCCOCCOCCOCCOCCOCCOCCOCCOCCOCCOCCNC(=O)CCCCC4SCC5NC(=O)NC54)c3)c2)OC(CO)C(OC2OC(CO)C(O)C(OC3OC(CO)C(O)C(O)C3O)C2O)C1O (centres unmarked) [Example 16] | 0.0084 µM
3 | CC(=O)NC1C(OCCCNC(=O)CCOCCOCCOCCOCCOCCOCCOCCOCCOCCOCCOCCOCCNC(=O)COc2ccc(-c3cc(OCC(=O)NCCOCCOCCOCCOCCOCCOCCOCCOCCOCCOCCOCCOCCC(=O)NCCCOC4OC(CO)C(OC5OC(CO)C(O)C(OC6OC(CO)C(O)C(O)C6O)C5O)C(O)C4NC(C)=O)cc(C(=O)NCCNC(=O)CCOCCOCCOCCOCCOCCOCCOCCOCCOCCOCCOCCOCCNC(=O)CCCCC4SCC5NC(=O)NC54)c3)cc2)OC(CO)C(OC2OC(CO)C(O)C(OC3OC(CO)C(O)C(O)C3O)C2O)C1O (centres unmarked) [Example 48] | 0.025 µM

More lines, in order of falling EC50, values ahead:

Row | EC50 | Structure (SMILES)
4 | 0.0373 µM | CC(=O)N[C@H]1[C@H](OCCCNC(=O)CCCCC(=O)NCc2cccc(C(=O)NCCNC(=O)CCCC[C@@H]3SC[C@@H]4NC(=O)N[C@@H]43)c2)O[C@H](CO)[C@@H](O[C@@H]2O[C@H](CO)[C@H](O)[C@H](O[C@H]3O[C@H](CO)[C@H](O)[C@H](O)[C@H]3O)[C@H]2O)[C@@H]1O [Example 13, N^1-(3-(((2R,3R,4R,5S,6R)-3-Acetamido-5-(((2S,3R,4S,5S,6R)-3,5-dihydroxy-6-(hydroxymethyl)-4-(((2R,3R,4S,5R,6R)-3,4,5-trihydroxy-6-(hydroxymethyl)tetrahydro-2H-pyran-2-yl)oxy)tetrahydro-2H-pyran-2-yl)oxy)-4-hydroxy-6-(hydroxymethyl)tetrahydro-2H-pyran-2-yl)oxy)propyl)-N6-(3-((2-(5-((3aS,4S,6aR)-2-oxohexahydro-1H-thieno[3,4-d]imidazol-4-yl)pentanamido)ethyl)carbamoyl)benzyl)adipamide]
5 | 0.0058 µM | CC(=O)NC1C(OCCCNC(=O)COc2cc(OCC(=O)NCCCOC3OC(CO)C(OC4OC(CO)C(O)C(OC5OC(CO)C(O)C(O)C5O)C4O)C(O)C3NC(C)=O)cc(C(=O)NCCNC(=O)CCOCCOCCOCCOCCOCCOCCOCCOCCOCCOCCOCCOCCNC(=O)CCCCC3SCC4NC(=O)NC43)c2)OC(CO)C(OC2OC(CO)C(O)C(OC3OC(CO)C(O)C(O)C3O)C2O)C1O [Example 6, 1-{5-[(3aS,4S,6aR)-2-Oxo-hexahydro-1H-thieno[3,4-d]imidazolidin-4-yl]pentanamido}-N-(2-{[3,5-bis({[(3-{[(2R,5S)-5-{[(2S,5S)-3,5-dihydroxy-6-(hydroxymethyl)-4-{[(2R,5R)-3,4,5-trihydroxy-6-(hydroxymethyl)oxan-2-yl]oxy}oxan-2-yl]oxy}-3-acetamido-4-hydroxy-6-(hydroxymethyl)oxan-2-yl]oxy}propyl)carbamoyl]methoxy})phenyl]formamido}ethyl)-3,6,9,12,15,18,21,24,27,30,33,36-dodecaoxanonatriacontan-39-amide]
